From PMC3269522 (2011) come the findings set out here.

As usually defined, the pIC50 is −log10 of the IC50, conventionally taken in molar units. A higher pIC50 goes with a small IC50.

pIC50: −log10 of the molar value.

The target in this assay is CyaB (Pseudomonas aeruginosa, UniProt Q9HZ23). As to the kind of experiment: adenylyl cyclase activity assay with purified enzyme. In kind it is biochemical.

In the case of KH7.148, the pIC50 was around 5.00.
